From PMC12277872, “Design, Synthesis, In Vitro, and In Silico Studies of 5‐(Diethylamino)‐2‐Formylphenyl Naphthalene‐2‐Sulfonate Based Thiosemicarbazones as Potent Anti‐Alzheimer Agents” (Archiv Der Pharmazie, 2025)

Key:
[1] = molecular target: T1, AChE from Electrophorus electricus (electric eel) (Electrophorus electricus, UniProt O42275); assay: biochemical; conditions: for IC50: AChI substrate, DTNB, 412 nm, Tris/HCl pH 8.0; for Ki: read-out: K i (nM) AChE
T1 construct: purchased Sigma Aldrich C3389
T1 sequence (O42275 24-633): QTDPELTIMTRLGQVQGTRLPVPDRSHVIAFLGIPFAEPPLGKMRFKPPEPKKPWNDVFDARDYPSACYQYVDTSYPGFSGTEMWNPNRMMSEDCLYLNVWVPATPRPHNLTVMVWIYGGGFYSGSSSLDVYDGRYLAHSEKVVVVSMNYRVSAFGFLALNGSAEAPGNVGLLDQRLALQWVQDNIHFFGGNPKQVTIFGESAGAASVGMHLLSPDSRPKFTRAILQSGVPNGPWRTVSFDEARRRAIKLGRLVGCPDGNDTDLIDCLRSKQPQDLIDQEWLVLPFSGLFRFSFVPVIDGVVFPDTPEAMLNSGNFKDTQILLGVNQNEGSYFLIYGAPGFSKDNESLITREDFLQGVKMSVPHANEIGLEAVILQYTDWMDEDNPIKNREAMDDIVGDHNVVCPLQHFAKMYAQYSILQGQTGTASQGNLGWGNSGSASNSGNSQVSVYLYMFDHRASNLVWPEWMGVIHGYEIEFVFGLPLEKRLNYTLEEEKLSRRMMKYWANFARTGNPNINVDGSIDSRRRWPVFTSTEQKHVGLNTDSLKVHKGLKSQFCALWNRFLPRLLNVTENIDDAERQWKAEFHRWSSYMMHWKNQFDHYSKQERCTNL
Protocol: Both […] (AChI) and butyrylcholine iodide (BChI) were used as substrates for the enzymatic hydrolysis reactions, with 5,5′‐dithiobis(2‐nitrobenzoic acid) (DTNB) serving as a common reagent for detecting the activities of AChE and BChE. The assay was conducted: 1 mL of 1.0 M Tris/HCl buffer (pH 8.0) was mixed with 10 μL of the sample solution in deionized water. To this mixture, 50 μL of AChE or BChE enzyme solution was added, and the reaction was incubated at room temperature for 10 min. After incubation, 50 μL of DTNB (0.5 mM) was introduced, followed by the addition of 50 μL of either AChI or BChI (10 mM), initiating the enzymatic reaction. […] This color change is due to the reaction of DTNB with thiocholine released during the hydrolysis of AChI or BChI. For every inhibitor that was utilized, IC50 and K i values were determined. In this study, C7512‐ BChE from equine serum and C3389‐ AChE from Electrophorus electricus (electric eel) were purchased from Sigma Aldrich.

hMAO‐B = molecular target: T2, hMAO‐B (Homo sapiens, UniProt P27338); assay: In vitro fluorometric MAO-B inhibition assay (tyramine substrate, horseradish peroxidase coupling); format: biochemical
T2 construct: purchased Sigma Aldrich M7441
T2 sequence (P27338 1-520): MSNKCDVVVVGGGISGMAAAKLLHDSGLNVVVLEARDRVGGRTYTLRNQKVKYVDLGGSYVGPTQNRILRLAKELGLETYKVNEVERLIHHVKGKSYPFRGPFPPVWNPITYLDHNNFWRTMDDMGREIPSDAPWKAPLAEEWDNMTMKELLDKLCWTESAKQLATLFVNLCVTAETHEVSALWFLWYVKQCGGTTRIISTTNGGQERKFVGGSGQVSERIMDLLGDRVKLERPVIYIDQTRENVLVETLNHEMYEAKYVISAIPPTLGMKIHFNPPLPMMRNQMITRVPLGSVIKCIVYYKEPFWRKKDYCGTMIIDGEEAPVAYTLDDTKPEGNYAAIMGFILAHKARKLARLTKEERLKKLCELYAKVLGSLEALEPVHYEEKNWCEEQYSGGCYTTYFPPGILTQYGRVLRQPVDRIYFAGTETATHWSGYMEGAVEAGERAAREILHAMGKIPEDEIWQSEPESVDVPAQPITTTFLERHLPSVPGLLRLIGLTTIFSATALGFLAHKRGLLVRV
Protocol: (§1) The in vitro fluorometric technique was used to assess each newly generated substance's inhibitory activity against hMAO‐A and hMAO‐B. In a horseradish peroxidase coupling reaction, the oxired reagent (10‐acetyl‐3,7‐dihydroxyphenoxazine) detects H2O2, a result of the oxidative deamination of tyramine, which is utilized as an MAO substrate. The test was carried out in two steps. First, each compound's concentrations of 10^–3 and 10^–4 M were investigated. […] These parameters of this study were made as in previous studies. We purchased these two enzymes from Sigma Aldrich (M7316‐Monoamine Oxidase A human and M7441‐ […]).

hMAO‐A = molecular target: T3, hMAO‐A (Homo sapiens, UniProt P21397); assay: In vitro fluorometric MAO-A inhibition assay (tyramine substrate, horseradish peroxidase coupling); format: biochemical
T3 construct: purchased Sigma Aldrich M7316
T3 sequence (P21397 1-527): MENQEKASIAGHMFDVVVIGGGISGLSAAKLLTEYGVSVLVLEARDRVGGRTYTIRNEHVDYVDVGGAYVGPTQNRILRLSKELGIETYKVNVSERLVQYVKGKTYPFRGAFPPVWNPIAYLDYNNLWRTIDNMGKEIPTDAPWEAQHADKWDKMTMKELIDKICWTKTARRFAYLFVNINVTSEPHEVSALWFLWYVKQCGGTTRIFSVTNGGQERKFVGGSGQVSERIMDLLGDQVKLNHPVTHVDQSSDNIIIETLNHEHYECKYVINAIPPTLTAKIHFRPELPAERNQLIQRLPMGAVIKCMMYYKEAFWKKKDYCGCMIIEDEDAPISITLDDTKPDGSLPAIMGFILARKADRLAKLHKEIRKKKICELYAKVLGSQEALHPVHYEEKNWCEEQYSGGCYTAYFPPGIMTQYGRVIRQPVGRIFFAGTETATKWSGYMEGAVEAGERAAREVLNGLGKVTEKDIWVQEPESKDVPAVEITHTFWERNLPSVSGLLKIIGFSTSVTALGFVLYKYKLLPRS
Protocol: as §1

BChE from equine serum = molecular target: T4, BChE from equine serum (Equus caballus, UniProt P81908); assay: biochemical; conditions: for IC50: BChI substrate, DTNB, 412 nm, Tris/HCl pH 8.0; for Ki: read-out: K i (nM) BChE
T4 construct: C7512‐ BChE from equine serum; purchased Sigma Aldrich C7512; host or cells: equine serum
T4 sequence (P81908 whole entry): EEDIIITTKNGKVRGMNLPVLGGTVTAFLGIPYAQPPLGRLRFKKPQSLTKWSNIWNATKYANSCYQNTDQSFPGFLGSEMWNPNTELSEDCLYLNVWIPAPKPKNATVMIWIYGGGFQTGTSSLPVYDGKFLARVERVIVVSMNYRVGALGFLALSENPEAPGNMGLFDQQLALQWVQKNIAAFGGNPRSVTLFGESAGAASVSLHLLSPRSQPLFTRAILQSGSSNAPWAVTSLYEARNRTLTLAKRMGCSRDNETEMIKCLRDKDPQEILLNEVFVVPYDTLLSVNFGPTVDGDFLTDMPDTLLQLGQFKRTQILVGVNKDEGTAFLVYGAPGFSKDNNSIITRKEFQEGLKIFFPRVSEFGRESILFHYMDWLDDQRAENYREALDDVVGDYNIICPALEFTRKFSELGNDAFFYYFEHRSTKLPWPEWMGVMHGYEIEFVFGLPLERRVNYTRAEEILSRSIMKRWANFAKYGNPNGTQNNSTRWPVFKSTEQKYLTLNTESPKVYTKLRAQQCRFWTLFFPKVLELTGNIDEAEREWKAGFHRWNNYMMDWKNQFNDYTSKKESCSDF
Protocol: Both […] (AChI) and butyrylcholine iodide (BChI) were used as substrates for the enzymatic hydrolysis reactions, with 5,5′‐dithiobis(2‐nitrobenzoic acid) (DTNB) serving as a common reagent for detecting the activities of AChE and BChE. The assay was conducted: 1 mL of 1.0 M Tris/HCl buffer (pH 8.0) was mixed with 10 μL of the sample solution in deionized water. To this mixture, 50 μL of AChE or BChE enzyme solution was added, and the reaction was incubated at room temperature for 10 min. After incubation, 50 μL of DTNB (0.5 mM) was introduced, followed by the addition of 50 μL of either AChI or BChI (10 mM), initiating the enzymatic reaction. The hydrolysis of the substrates was monitored spectrophotometrically by measuring the absorbance at 412 nm, corresponding to the formation of the yellow‐colored 5‐thio‐2‐nitrobenzoate anion. This color change is due to the reaction of DTNB with thiocholine released during the hydrolysis of AChI or BChI. For every inhibitor that was utilized, IC50 and K i values were determined. In this study, C7512‐ BChE from equine serum and C3389‐ AChE from Electrophorus electricus (electric eel) were purchased from Sigma Aldrich.

Compound	IC50 [1] [nM]	Ki [1] [nM]	IC50 (hMAO‐B) [nM]	IC50 (hMAO‐A) [nM]	IC50 (BChE from equine serum) [nM]	Ki (BChE from equine serum) [nM]
CCN(CC)c1ccc(/C=N/NC(=S)Nc2ccc(F)cc2)c(OS(=O)(=O)c2ccc3ccccc3c2)c1 [Compound 5l, (E)‐5‐(Diethylamino)‐2‐({2‐[(4‐fluorophenyl)carbamothioyl]hydrazono}methyl)phenyl naphthalene‐2‐sulfonate]	29.5 ± 2.68	27.4 ± 3.45	277 ± 6.33	112 ± 2.78	200 ± 6.88	182 ± 9.05
CCN(CC)c1ccc(/C=N/NC(=S)Nc2ccc(Cl)cc2)c(OS(=O)(=O)c2ccc3ccccc3c2)c1 [Compound 5i, (E)‐2‐({2‐[(4‐Chlorophenyl)carbamothioyl]hydrazono}methyl)‐5‐(diethylamino)phenyl naphthalene‐2‐sulfonate]	24.8 ± 2.41	21 ± 4.12	285 ± 4.02	121 ± 3.15	200 ± 9.41	190 ± 13.6
CCN(CC)c1ccc(/C=N/NC(=S)Nc2ccccc2C(F)(F)F)c(OS(=O)(=O)c2ccc3ccccc3c2)c1 [Compound 5h, (E)‐5‐(Diethylamino)‐2‐[(2‐{[2‐(trifluoromethyl)phenyl]carbamothioyl}hydrazineylidene)methyl]phenyl naphthalene‐2‐sulfonate]	16.8 ± 1.35	14.6 ± 3.36	249 ± 9.1	100 ± 4.57	145 ± 8.96	136 ± 9.17
CCN(CC)c1ccc(/C=N/NC(N)=S)c(OS(=O)(=O)c2ccc3ccccc3c2)c1 [Compound 5n, (E)‐2‐[(2‐Carbamothioylhydrazono)methyl]‐5‐(diethylamino)phenyl naphthalene‐2‐sulfonate]	47.7 ± 5.67	42.4 ± 4.1	396 ± 8.09	137 ± 6.55	308 ± 9.98	270 ± 13.5
CCN(CC)c1ccc(/C=N/NC(=S)NCC(C)C)c(OS(=O)(=O)c2ccc3ccccc3c2)c1 [Compound 5f, (E)‐5‐(Diethylamino)‐2‐{[2‐(isobutylcarbamothioyl)hydrazono]methyl}phenyl naphthalene‐2‐sulfonate]	49.5 ± 5.21	38.8 ± 6.18	388 ± 5.37	134 ± 8.04	254 ± 6.31	240 ± 18.6
CCN(CC)c1ccc(/C=N/NC(=S)Nc2cccc(Cl)c2)c(OS(=O)(=O)c2ccc3ccccc3c2)c1 [Compound 5e, (E)‐2‐({2‐[(3‐chlorophenyl)carbamothioyl]hydrazono}methyl)‐5‐(diethylamino)phenyl naphthalene‐2‐sulfonate]	31 ± 4.16	25.4 ± 3.32	> 1000	117 ± 7.33	208 ± 7.53	195 ± 11.5
CCN(CC)c1ccc(/C=N/NC(=S)NCCc2ccccc2)c(OS(=O)(=O)c2ccc3ccccc3c2)c1 [Compound 5t, (E)‐5‐(Diethylamino)‐2‐{[2‐(phenethylcarbamothioyl)hydrazono]methyl}phenyl naphthalene‐2‐sulfonate]	56.2 ± 4.58	48.3 ± 7.32	289 ± 9.11	139 ± 6.02	271 ± 6.9	227 ± 16.1
CCN(CC)c1ccc(C=NNC(=S)NCCCSC)c(OS(=O)(=O)c2ccc3ccccc3c2)c1 [Compound 5g]	80.4 ± 7.62	72.4 ± 10.1	399 ± 7.93	188 ± 5.36	287 ± 8.57	258 ± 16.1
CCN(CC)c1ccc(/C=N/NC(=S)Nc2ccc(Br)cc2)c(OS(=O)(=O)c2ccc3ccccc3c2)c1 [Compound 5b, (E)‐2‐({2‐[(4‐Bromophenyl)carbamothioyl]hydrazono}methyl)‐5‐(diethylamino)phenyl naphthalene‐2‐sulfonate]	33.8 ± 3.41	26.6 ± 3.34	410 ± 7.47	132 ± 7.01	202 ± 5.66	191 ± 15.7
CCN(CC)c1ccc(/C=N/NC(=S)Nc2ccc(OC)cc2)c(OS(=O)(=O)c2ccc3ccccc3c2)c1 [Compound 5d, (E)‐5‐(Diethylamino)‐2‐({2‐[(4‐methoxyphenyl)carbamothioyl]hydrazono}methyl)phenyl naphthalene‐2‐sulfonate]	39.4 ± 2.87	32.2 ± 5.93	406 ± 8.24	171 ± 10.4	253 ± 10.5	235 ± 15
CCN(CC)c1ccc(/C=N/NC(=S)Nc2cccc(OC)c2)c(OS(=O)(=O)c2ccc3ccccc3c2)c1 [Compound 5k, (E)‐5‐(Diethylamino)‐2‐({2‐[(3‐methoxyphenyl)carbamothioyl]hydrazono}methyl)phenyl naphthalene‐2‐sulfonate]	116 ± 8.42	95.8 ± 9.54	> 1000	145 ± 8.03	253 ± 9.15	205 ± 10.2
CCN(CC)c1ccc(/C=N/NC(=S)NCc2ccccc2)c(OS(=O)(=O)c2ccc3ccccc3c2)c1 [Compound 5s, (E)‐2‐{[2‐(Benzylcarbamothioyl)hydrazono]methyl}‐5‐(diethylamino)phenyl naphthalene‐2‐sulfonate]	71.4 ± 8.92	63.9 ± 7.54	369 ± 12	131 ± 5.34	220 ± 8.53	195 ± 13.5
CCN(CC)c1ccc(/C=N/NC(=S)Nc2ccccc2)c(OS(=O)(=O)c2ccc3ccccc3c2)c1 [Compound 5c, (E)‐5‐(Diethylamino)‐2‐{[2‐(phenylcarbamothioyl)hydrazono]methyl}phenyl naphthalene‐2‐sulfonate]	38.4 ± 5.03	25.4 ± 5.32	296 ± 6.01	189 ± 6.46	218 ± 8.41	183 ± 15
CCN(CC)c1ccc(/C=N/NC(=S)NC2CCCCC2)c(OS(=O)(=O)c2ccc3ccccc3c2)c1 [Compound 5p, (E)‐2‐{[2‐(Cyclohexylcarbamothioyl)hydrazono]methyl}‐5‐(diethylamino)phenyl naphthalene‐2‐sulfonate]	54.5 ± 4.57	47.1 ± 6.35	327 ± 9.13	145 ± 3.57	254 ± 8.08	226 ± 12.6
CCN(CC)c1ccc(/C=N/NC(=S)NCc2ccc(Cl)cc2)c(OS(=O)(=O)c2ccc3ccccc3c2)c1 [Compound 5q, (E)‐2‐({2‐[(4‐Chlorobenzyl)carbamothioyl]hydrazono}methyl)‐5‐(diethylamino)phenyl naphthalene‐2‐sulfonate]	19.3 ± 1.28	17.6 ± 3.34	308 ± 6.07	119 ± 9.24	202 ± 14.9	183 ± 11.5
